Like-named read-outs stand apart in the source and are kept apart here.
How the values were obtained:
[1] = versus phenylbutazone; Alpermann 1970, 1972; cited from earlier work
[2] = system: carrageenin edema of the hind paw of rats; assay: Acute antiphlogistic action: carrageenin edema of the hind paw of rats after single oral administration; settings: for ED50: Rattus norvegicus, po, read-out: ED50 (dose which causes a maximum edema inhibition of 50%); for Therapeutic quotient LD50/ED50: carrageenin edema, LD50 7 days oral; for Therapeutic quotient LD50/ED50 / Maximum inhibition of carrageenin edema within 7 hours after oral administration: rats
Procedure: (§1) Biol. Med., 111 (1962) 544]}, on chronic inflammatory processes {Cotton pellet test on rats [Winter et al.: J. Pharmacol. exp. Therap., 141 (1963) 369]} and on adjuvant arthritis [based on the method of Perrine et al., Brit. J. Pharmacol., 21 (1963) 127] is determined.
The influence of the compounds to be tested on carrageenin edema of the hind paw of rats was determined as follows:
The rats are kept at 24° C.
The paw volume of each rat is determined (2 to 3 individual measurements in each case) before edema provocation and at hourly intervals for 7 hours after edema provacation. The average percentage paw swelling of each treated group determined at the specified times after the carrageenin injection is related to that of the untreated control group (=100%).
The maximum percentage edema inhibition serves as a measure of the antiphlogistic action.
The paw volume is determined plethysmometrically. Measuring principle: the volume of liquid displaced through the paw of the rat is recorded digitally via an electromechanical pressure transducer (Statham P 23 V, 0-200 mm Hg).
The doses indicated for the compounds tested were administered in a volume of liquid of 20 ml/kg.

[3] = system: adjuvant arthritis in rats; assay: Antiarthritic action: adjuvant arthritis in rats (Mycobacterium butyricum)
Procedure: as §1
The influence of the compounds to be tested on polyarthritis in rats caused by Mycobacterium butyricum (so-called "adjuvant arthritis") was determined using the experimental arrangement hereafter described: based on the method described by NEWBOULD and PERRINE et al. [NEWBOULD, B. B.; Brit. J. Pharmacol. 21, 127 (1963); and PERRINE, J. W. and TAKESUE, E. I.; Arch. int. Pharmacodyn., 174, 192 to 198 (1968)], so-called adjuvant arthritis, which manifests itself chiefly in a severe swelling of the tail (primary lesion) and of the paws (secondary lesion), is caused in rats by intradermal injection of a Mycobact. butyricum suspension in liquid paraffin into the base of the tail. Antiphlogistic agents inhibit this swelling reaction.

[4] = system: pain reaction provoked in rats by bending an inflamed ankle (AgNO3 arthritis); assay: animal or person; assay type: in vivo
Procedure: Based on the method of HOFFMEISTER et al. [Arzneim. Forsch., 24, (1974) 600], 0.2 ml of a 1% strength silver nitrate solution is injected into the ankle joint (inside) of the right hind paw of female Sprague-Dawley rats (each animal weighing about 160 to 180 g) under ether anaesthesia. The animals are kept at 24° C. and are fed Altromin®R and water ad libitum. After the AgNO3 injection, almost all the animals (90 to 95%) can be made to cry out by moderate bending of the ankle joint. All the animals reacting positively are collected into groups of 10 animals. The compounds to be tested are administered orally in a volume of liquid of 10 ml/kg immediately after administration of the AgNO3; the untreated control animals receive the corresponding amount of tapwater.
Over a period of 4 hours after administration of the substance, the number of animals reacting is determined at half hourly intervals.
The maximum percentage of the protected animals over a period of 4 hours after administration of the substance [relative to the number of animals in the control group reacting (=100%)] serves as a measure of the analgesic action.

[5] = system: yeast-induced fever in rats; assay: Antipyretic action: yeast-induced fever in rats; assay type: in vivo, rats (female Sprague-Dawley); settings: for ED (1.5 degC): Rattus norvegicus, po, read-out: ED1.5 (dose which causes a maximum reduction in yeast-induced fever of 1.5° C.); for Therapeutic quotient LD50/ED2.5: yeast-induced fever, LD50 7 days
Procedure: The antipyretic action is determined by the influence of the compounds to be tested on yeast-induced fever in rats.
Hyperthermia is produced in female Sprague-Dawley rats (in groups of 5 animals; weight of each animal: 160 to 180 g) by subcutaneous injection (neck) of 10 ml/kg of a 20 percent strength aqueous brewer's yeast suspension (brewer's yeast "Heliosan"/Hefereformwerk Radolfzell). 24 hours after the yeast injection, the compounds to be tested are administered orally to the animals in a volume of liquid of 5 ml/kg, and a control group receives the corresponding amount of tapwater. The feed (Altromin®R, water ad libitum) was withdrawn from the rats 18 hours beforehand. The rats are kept at about 23° C.
The body temperature is recorded 1 hour before administration of the substance and at hourly intervals after administration of the substance.
[…] The body temperature is measured with a temperature probe (Tastomed H, Braun electronic).

in vivo = settings: rat, po
rats = settings: 7 days (Table 6)
[6] = system: formation of granulation tissue after subcutaneous implantation of cotton; assay: Chronic antiphlogistic action: cotton pellet test (formation of granulation tissue) in rats; settings: rats; for Therapeutic quotient LD50/ED20: cotton pellet test, LD50 7 days oral; for Inhibition of the formation of granulation tissue after treatment for 7 days: sodium salt
Procedure: as §1
Experimental procedure for investigating the influence of the compounds to be tested on the formation of granulation tissue after implantation of cotton in rats (so-called cotton pellet method):
1 cotton pellet (manufacturer: Messrs. Hartmann/Heidenheim; cotton pellets size 2, No. 4865/2) which weighs 13.0±0.5 mg and has been impregnated beforehand with 0.1 ml of a solution of 0.5 mg of penicillin G and 0.8 mg of streptomycin sulfate/1 ml of distilled water is in each case implanted subcutaneously into the shoulder-blade region, on both sides, of male Sprague-Dawley rats (groups of 8 animals each; weight of each animal: 150 to 170 g) under diethyl ether anaesthesia and under sterile conditions. The cut skin is closed by means of clamps.
The compounds to be tested (in the form of the sodium salt in aqueous solution) or the corresponding amount (5 ml/kg/day) of tapwater (=control group) are administered orally each day on seven successive days. On the eighth day, the animals are killed and the cotton granules are exposed carefully, that is to say preserving the fibrous tissue capsule, dried (15 hours at 120°) and weighed. By substracting the weight of the cotton pellets, the amount of newly formed granulation tissue is obtained.
The percentage reduction in the average granuloma dry weight of a treated group compared with the control group (=100%) serves as a measure of the antiproliferative action of a compound.

[7] = AgNO3 arthritis pain, LD50 7 days oral, rats
[8] = rats, single oral dose 0.3 mg/kg

Row | Compound | ED50 [2] [mg/kg] | Therapeutic quotient LD50/ED50 [2] | ED (1.5 degC) ([5]; rats, perorally, single dose) [mg/kg] | LD50 at 168 h (in vivo) [mg/kg] | Maximum inhibition of carrageenin edema within 7 hours after oral administration ([2]; single oral dose 3.0 mg/kg) [%] | Maximum reduction in yeast-induced fever over a period of 7 hours [5, 8] [°C] | Therapeutic quotient LD50/ED2.5 ([5]; rats) | further results
1 | Cc1cccc(Nc2cscc2C(=O)O)c1Cl [2-chloro-3-methylphenyl derivative] | – | – | – | – | – | – | – | actions [1]: superior to those of phenylbutazone
2 | Cc1c(Cl)cccc1Nc1cscc1C(=O)O [2-methyl-3-chlorophenyl derivative] | – | – | – | – | – | – | – | actions [1]: superior to those of phenylbutazone
3 | O=C(O)c1cscc1Nc1c(Cl)cccc1Cl [Compound 1, 3-(2,6-dichloroanilino)thiophen-4-carboxylic acid] | 56 | 2.1 | 8.2 | 120 | – | – | – | Maximum inhibition of carrageenin edema within 7 hours after oral administration ([2]; single oral dose 10.0 mg/kg): 31%; Maximum inhibition of carrageenin edema within 7 hours after oral administration ([2]; single oral dose 100.0 mg/kg): 57%; ED25 ([3]; Rattus norvegicus, po, 120 h, read-out: ED25 (inhibition of adjuvant arthritis of 25%)): 9 mg/kg/day; therapeutic quotient LD50/ED25 ([3]; adjuvant arthritis, LD50 7 days oral, rats): 13.3; Therapeutic quotient LD50/ED50 [4, 7]: 0.86; therapeutic quotient LD50/ED25 [4, 7]: 4; ED25 ([4]; Rattus norvegicus, po, read-out: ED25 (dose which completely suppresses the pain reaction in 25% of the animals)): 30 mg/kg; ED50 ([4]; Rattus norvegicus, po, rats, perorally, at the time of maximum action, read-out: ED50 (dose which completely suppresses the pain reaction in 50% of the animals)): 140 mg/kg; Inhibition of the pain reaction ([4]; rats, single oral dose 3 mg/kg): 10%; Inhibition of the pain reaction ([4]; rats, single oral dose 20 mg/kg): 20%; Inhibition of the pain reaction ([4]; rats, single oral dose 100 mg/kg): 40%; Inhibition of the pain reaction ([4]; rats, single oral dose 200 mg/kg): 60%; Maximum reduction in yeast-induced fever over a period of 7 hours ([5]; rats, single oral dose 1 mg/kg): 0 °C; Maximum reduction in yeast-induced fever over a period of 7 hours ([5]; rats, single oral dose 3 mg/kg): 0.6 °C; Maximum reduction in yeast-induced fever over a period of 7 hours ([5]; rats, single oral dose 10 mg/kg): 1.7 °C; Maximum reduction in yeast-induced fever over a period of 7 hours ([5]; rats, single oral dose 30 mg/kg): 2.1 °C; actions [1]: superior to those of phenylbutazone
4 | Cc1cccc(Cl)c1Nc1cscc1CC(=O)O [Compound 4, 4-(2-chloro-6-methylanilino)-3-thiophenacetic acid] | 3 | > 6.7 | ~0.3 | > 20 | 50 | 1.4 | > 66.7 | LD50, lethal action after administration for 7 days (rats): > 20 mg/kg/day
5 | Cc1ccc(Cl)c(Nc2cscc2CC(=O)O)c1Cl [Compound 5, 4-(2,6-dichloro-3-methylanilino)-3-thiophenacetic acid] | – | – | < 0.3 | 8 | – | 1.7 | > 26.7 | Therapeutic quotient LD50/ED20 [6]: 5; Inhibition of the formation of granulation tissue after treatment for 7 days ([6]; 7 x 1.0 mg/kg/day orally): 16%; Inhibition of the formation of granulation tissue after treatment for 7 days ([6]; 7 x 3.0 mg/kg/day orally): 26%
6 | O=C(O)Cc1sccc1Nc1c(Cl)cccc1Cl [Compound 6, 3-(2,6-dichloroanilino)-2-thiophenacetic acid] | ~3 | > 6.7 | < 0.3 | > 20 | 52 | 1.7 | > 66.7 | LD50, lethal action after administration for 7 days (rats): > 20 mg/kg/day
7 | Cc1cccc(Nc2cscc2CC(=O)O)c1Cl [Compound 7, 4-(2-chloro-3-methylanilino)-3-thiophenacetic acid] | – | – | – | > 20 | – | – | – | Therapeutic quotient LD50/ED20 [6]: > 5.7; Inhibition of the formation of granulation tissue after treatment for 7 days ([6]; 7 x 3.0 mg/kg/day orally): 19%; Inhibition of the formation of granulation tissue after treatment for 7 days ([6]; 7 x 10.0 mg/kg/day orally): 27%
8 | Cc1c(Cl)cccc1Nc1cscc1CC(=O)O [Compound 8, 4-(3-chloro-2-methylanilino)-3-thiophenacetic acid] | ~3 | > 10 | – | > 30 | 49 | – | – | –
9 | Cc1cccc(C)c1Nc1cscc1CC(=O)O [Compound 9, 4-(2,6-dimethylanilino)-3-thiophenacetic acid] | – | – | 0.3 | > 30 | – | 1.5 | > 100 | Therapeutic quotient LD50/ED20 [6]: > 10; Inhibition of the formation of granulation tissue after treatment for 7 days ([6]; 7 x 3.0 mg/kg/day orally): 19%; Maximum reduction in yeast-induced fever over a period of 7 hours ([5]; rats, single oral dose 0.1 mg/kg): 1.0 °C; Maximum reduction in yeast-induced fever over a period of 7 hours ([5]; rats, single oral dose 1 mg/kg): 2.3 °C; LD50, lethal action after administration for 7 days (rats): > 30 mg/kg/day
10 | O=C(O)Cc1csc(Cl)c1Nc1c(Cl)cccc1Cl [Compound 10, 5-chloro-4-(2,6-dichloroanilino)-3-thiophenacetic acid] | – | – | – | – | – | 1.2 | – | ED (1.5 degC) [5]: 0.5 mg/kg; Maximum reduction in yeast-induced fever over a period of 7 hours ([5]; rats, single oral dose 0.6 mg/kg): 1.6 °C
11 | Cc1cccc(Cl)c1Nc1ccsc1CC(=O)O [Compound 11, 3-(2-chloro-6-methylanilino)-2-thiophenacetic acid] | ~3 | > 6.7 | – | > 20 | 49 | – | – | –
12 | O=C(O)Cc1cscc1Nc1c(F)cccc1F [Compound 12, 4-(2,6-difluoroanilino)-3-thiophenacetic acid] | – | – | 0.9 | > 30 | – | 0.5 | > 33 | Maximum reduction in yeast-induced fever over a period of 7 hours ([5]; rats, single oral dose 1 mg/kg): 1.6 °C
